Test results as given in US8722649B2, “Alpha-chloro and alpha-bromo phosphonate analogs of lysophosphatidic acid and methods of making and using thereof” (University of Utah Research Foundation, priority 2007, dated 2014).
Entries after “also recorded” stand apart in the source; their conditions may differ.

Experiments:
[1] = test system: LPA GPCRs; assay: Ca2+ mobilization assay, overall profile across LPA GPCRs; type: cell-based, human; settings: across LPA1-4
Experimental: After incubating the cells with Fura-2 AM, the cells were rinsed with Krebs buffer and changes in the intracellular Ca^2+ concentration were monitored by determining the ratio of emitted light intensities at 520 nm in response to excitation at 340 and 380 nm using FLEXstation II (Molecular Devices, Sunnyvale, Calif.). Each well was monitored for 80-120 sec. For testing agonist activity of the compounds, the test compounds were added automatically after 15 sec of baseline measurement. To determine antagonist properties, varying concentrations of the compounds were mixed with a constant concentration of LPA and responses were monitored. Each test was performed in quadruplicate. EC50, IC50, and Ki values were calculated by fitting a sigmoid function to data points with the nonlinear curve-fitting feature of KaleidaGraph (Synergy Software, Essex Junction, Vt.).
Receptor activation using Ca^2+ mobilization assay. The assay for mobilization of intracellular Ca^2+ was performed as described. […] Using a FLEXStation (Molecular Devices, Sunnyvale, Calif.), changes in intracellular Ca^2+ concentration were monitored. Ligand-induced changes in fluorescence were monitored for 80-120 seconds. Ca^2+ transients were quantified automatically by calculating the difference between maximum and baseline ratio values for each sample. […] EC50, IC50, and Ki values were calculated as described. […]

[2] = test system: HCT 116 cells; assay: HCT 116 proliferation (MTS); type: cell-based; settings: 2, 10, 20 μM, 72 h
Description: Effects of bromo-LPA analogs on HCT 116 proliferation. HCT 116 cells were purchased from the American Type Culture Collection (Manassas, Mass.). Medium and reagents were obtained from the following sources: McCoy's 5a Medium (ATCC, Manassas, Va.); Penicillin-Streptomycin (MP biomedicals, Solon, Ohio); Fetal bovine serum (ATCC, Manassas, Mass.); Accutase (MP biomedicals, Solon, Ohio); MTS (Promega, Madison, Wis.); Matrigel (Becton Dickinson Labware, Cambridge, Mass.); Extracel (Glycosan, Salt Lake City, Utah). Lysophosphatidic acid receptor pan-Antagonist (LPAa)—the pure diastereomers 1a and 1b, and the mixed diastereomers 1 (University of Utah, Salt Lake City, Utah).
HCT 116 cells were maintained in McCoy's 5a medium supplemented with 10% FBS, 100 μg/ml streptomycin, and 100 units/ml penicillin at 37° C. in 95% air, 5% CO2. 4,000HCT-116 cells were seeded in 100 μl media in each well of 96-well flat-bottomed microplates (BD Labware, N.J.). The pure diastereomers 1a and 1b, and the mixed diastereomers 1 were added at various final concentrations (2 μM, 10 μM, 20 μM) to each column. At 72 h, pipet 20 μl MTS (Promega, Madison, Wis.) into each well, and cells were further incubated for 2 h. The absorbance of the samples at 490 nm was measured using a 96-well plate reader (OPTI max, Sunnyvale, Calif.).

[3] = test system: HCT 116 cells; assay: Hepatic colon cancer tumor growth; type: in vivo, nude mice; settings: 10 mg/kg i.p. twice per week
Experimental: Four-week-old female athymic nude mice (Charles River Laboratories, Wilmington, Mass.) were used for colon cell implantation. All animals were maintained in a sterile environment. Cages, bedding, food, and water were all autoclaved. All animals were maintained on a daily 12-hr light/12-hr dark cycle.
Nude mice were anesthetized by intraperitoneal injection of ketamine (80 mg/kg) and xylazine (10 mg/kg) according to the protocol approved by the University of Utah Institutional Animal Care and Use Committee (IACUC).
After anesthesia induction, the aseptic surgical field was sterilized with iodine and alcohol swabs. HCT 116 cells (1×10^6) in 50 μl of the sECM hydrogel Extracel was directly injected into the livers of nude mice after they had been randomly assigned to one of the groups at the beginning of the experiment (8 mice/group).
The control group received physiological saline i.p. injection twice per week starting at one week after the cell transplantation and ended at two weeks after the treatment. The treatment group received i.p. administration of the pure diastereomers 1b at 10 mg/kg twice per week with the same period of control group.
Mice were observed daily. Animals were euthanized at 3 weeks post-injection in a carbon dioxide chamber. Body weights were measured, and the livers were excised. Liver weights and tumor diameters were subsequently determined. Colon tumors were measured using digital calipers. The volume of the cancer was then calculated according to the formula: Cancer Volume (CV)=d2×D/2, where d and D are the shortest and the longest diameters, respectively. After measurement, the tumor tissue was then harvested and placed in 10% formalin for paraffin embedding in preparation for the subsequent histological analyses.

[4] = test system: HCT 116 cells; assay: HCT 116 wound-healing migration assay; type: cell-based; settings: 20 μM; 0, 16, 24 and 48 hours
Experimental: Effects of BrP-LPA analogs on HCT 116 migration. HCT 116 (2×10^5 per well) were plated in a six-well plate. When the cells were 100% confluent, the cells were treated with Mitomycin C (Sigma, MO, USA) 10 μg/ml for 2 hours, and then the monolayer was scratched using a 200 μl pipette tip. Medium and nonadherent cells were aspirated, the adherent cells were washed once, and new medium containing various concentrations of the pure diastereomers 1a and 1b, and the mixed diastereomers 1 (2 μM, 10 μM, 20 μM) was added (FIG. 13). A photograph was taken at the marked field (n=4) at 0, 16, 24 and 48 hours (FIG. 14). Wound closure was expressed as a percentage of the initial wound area, which was quantified using NIH ImageJ software.

| SMILES | overall LPA GPCR ligand profile [1] | HCT 116 cell proliferation [2] | hepatic tumor burden (liver weight) [3] | new blood vessels in hepatic colon tumor (H&E) [3] | hepatic tumor size / tumor volume in words ([3]; vs untreated control) | HCT 116 cell migration [4] |
| --- | --- | --- | --- | --- | --- | --- |
| CCCCCCCCCCCCCCCC(=O)OC[C@@H](O)C[C@@H](Br)P(=O)(O)O [Compound 1a] | pan-antagonist |  |  |  |  |  |
| CCCCCCCCCCCCCCCC(=O)OC[C@@H](O)C[C@H](Br)P(=O)(O)O [Compound 1b] |  | highly suppressed; also recorded: dose-dependent inhibition | marked reduction of hepatic tumor burden; also recorded: significantly reduced tumor burden | significantly reduced amounts of new blood vessels | significantly smaller; also recorded: significant decrease in tumor volume; also recorded: smaller than the untreated control | greatest inhibition |
